Here are results for 41 compounds from PubChem BioAssay (NCI).

Test systems include LXFL 529 NSCLC; HOP-18 NSCLC; SNB-78 CNS; DLD-1 colon; XF 498 CNS; M19-MEL melanoma; MDA-N; RXF-631 renal.
Holding throughout (test): NCI anticancer screen, dose series, 48 h

The structures appear in SMILES notation. “And” between values parts separate entries of the source, which are not always exact repeats. Equal values may be shown once.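 Results reflect a 48-hour exposure of cells in 96-well plates to compound at five concentrations. The concentration for 50% growth inhibition is given as GI50. TGI: total growth inhibition.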

Turning to `CC(C)N(C(=O)C12C3C4C5(C#N)C3C1(C#N)C5C42C#N)C(C)C` (configuration not stated), the TGI with LXFL 529 NSCLC, in the experiment on HOP-18 NSCLC, in the experiment on SNB-78 CNS, in the experiment with DLD-1 colon, in the experiment on XF 498 CNS and with M19-MEL melanoma was > 100 µM throughout.

`O=C(O)c1cc(-c2ccc3cc4c(cc3c2)OCO4)nc2ccccc12`: in the experiment with MDA-N, the TGI was > 100 µM.

Consider `C=C[C@@H](C)[C@]1(C(=O)OC)CCCC12OCCO2`, for which the TGI in the experiment with LXFL 529 NSCLC, in the experiment on HOP-18 NSCLC, with DLD-1 colon, in the experiment on XF 498 CNS and with M19-MEL melanoma was > 100 µM each time.

For `CN(CCS(=O)(=O)N1C(=O)C2CCCN2C(=O)[C@@H]1Cc1ccccc1)C(=O)OCc1ccccc1` (some centres not stated), the TGI with LXFL 529 NSCLC, in the experiment on HOP-18 NSCLC, in the experiment with SNB-78 CNS, in the experiment on DLD-1 colon, in the experiment with RXF-631 renal and in the experiment with M19-MEL melanoma was > 100 µM each time.

As for `O=C(/C=C\c1ccccc1O)c1ccc(O)cc1O`, the TGI with LXFL 529 NSCLC, in the experiment on HOP-18 NSCLC, with SNB-78 CNS, in the experiment with DLD-1 colon, with RXF-631 renal and with M19-MEL melanoma was > 100 µM in each case.

As for `O=C1[C@H]2ON(c3ccccc3)C(c3ccc([N+](=O)[O-])cc3)[C@H]2C(=O)N1c1ccc(Cc2ccc(N3C(=O)[C@@H]4ON(c5ccccc5)C(c5ccc([N+](=O)[O-])cc5)[C@@H]4C3=O)cc2)cc1` (some centres not stated), the TGI with LXFL 529 NSCLC, in the experiment on HOP-18 NSCLC, in the experiment on SNB-78 CNS, in the experiment on DLD-1 colon, in the experiment with RXF-631 renal and with M19-MEL melanoma was > 100 µM throughout.

Regarding `Cc1ccc(C)c(N2C(=O)C(=O)C(c3nc4ccccc4s3)/C(=N/N)C2=O)c1` (configuration not stated), the TGI in the experiment with LXFL 529 NSCLC was > 100 µM; with HOP-18 NSCLC, > 100 µM; with SNB-78 CNS, > 100 µM; with DLD-1 colon it was > 100 µM; in the experiment with XF 498 CNS it was > 100 µM; with M19-MEL melanoma, > 52.7 µM.

`CSc1ccc2c(cc1=O)[C@@H](NC(=O)c1cccc([N+](=O)[O-])c1)CCc1cc(O)c(O)c(O)c1-2`: the TGI is > 100 µM with LXFL 529 NSCLC; > 100 µM in the experiment on HOP-18 NSCLC; > 100 µM in the experiment on DLD-1 colon; > 100 µM with RXF-631 renal; 49.4 µM with M19-MEL melanoma.

In the case of `NCCSSCc1ccccc1CSSCCN`, the TGI with LXFL 529 NSCLC, in the experiment with HOP-18 NSCLC, in the experiment on SNB-78 CNS, with DLD-1 colon, with RXF-631 renal and in the experiment on XF 498 CNS was > 100 µM each time. For the same compound, in the experiment on M19-MEL melanoma, the TGI is > 100 µM.

On to `Cc1cnc2ccc(C)c([N+](=O)[O-])c2c1NCCCN(C)C`, for which the TGI with SNB-78 CNS, in the experiment with XF 498 CNS and in the experiment with M19-MEL melanoma was > 100 µM throughout.

For the compound `C/C(=N\N=C(N)N)C(CN1CCCCC1)C(c1ccccc1)c1c(O)c2ccccc2oc1=O` (configuration not stated), the TGI in the experiment on LXFL 529 NSCLC, in the experiment with DLD-1 colon, with RXF-631 renal, in the experiment with XF 498 CNS and in the experiment on M19-MEL melanoma was > 100 µM in each case.

As for `Cc1c(C)c2ccc3oc4ccccc4c3c2oc1=O`, the TGI in the experiment with LXFL 529 NSCLC, in the experiment with HOP-18 NSCLC, with SNB-78 CNS, with DLD-1 colon, in the experiment with RXF-631 renal and in the experiment with M19-MEL melanoma was > 100 µM throughout.

With `OCC1C(OCc2ccccc2)C(OCc2ccccc2)C(OCc2ccccc2)CN1Cc1ccccc1` (configuration not stated), in the experiment on MDA-N, the TGI was > 100 µM.

Turning to `COc1cc2cc(OC(C)=O)c3cc4c(cc3c2c(OC)c1OC)OCO4`, the TGI in the experiment with LXFL 529 NSCLC, with HOP-18 NSCLC, in the experiment with SNB-78 CNS, in the experiment on DLD-1 colon, with RXF-631 renal and in the experiment with XF 498 CNS was > 100 µM each time. For the same compound, the TGI in the experiment with M19-MEL melanoma was > 100 µM.

Consider `COC(=O)[C@@H]1c2cc3c(c(O)c2[C@@H](OC2OC(C)C(OC)C(C)(OC)C2OC)C[C@]1(C)O)C(=O)c1c(O)cc2c(c1C3=O)O[C@H]1O[C@]2(C)[C@H](O)[C@@H](N(C)C)[C@@H]1O` (some centres not stated), for which the TGI in the experiment with LXFL 529 NSCLC was 1.28 µM; in the experiment with SNB-78 CNS, 0.0762 µM; in the experiment with DLD-1 colon, 0.258 µM and 0.436 µM; in the experiment on MDA-N it was 0.179 µM; with M19-MEL melanoma, 0.0156 µM and 0.0185 µM. In addition, the GI50 in the experiment on HOP-18 NSCLC was 0.0404 µM.

As for `CCOC(=O)Cc1c(C)c2cc(C(=O)c3ccccc3)c(O)cc2oc1=O`, the TGI in the experiment on MDA-N was > 100 µM.

With `CCc1cccc(C(C)C)c1NC(=O)C(=O)C1C(=O)Nc2ccccc2S1=O` (configuration not stated), the TGI in the experiment with MDA-N is > 100 µM.

For `COc1ccc(Nc2nc3cc(N)cc(N)c3nc2-c2ccccc2)cc1`, in the experiment on MDA-N, the GI50 was 21.6 µM and the TGI was determined as 36 µM.

With `C/C=C(\C)c1cc(=O)c2c(C)cc3c(c2o1)C(=O)c1c(O)c(C2CC(C)(N(C)C)C(OC(C)=O)C(C)O2)cc(C2CC(N(C)C)C(O)C(C)O2)c1C3=O` (configuration not stated), the TGI in the experiment on MDA-N was 4.83 µM.

Regarding `N#C/C(=C\c1cc(O)cc(O)c1)C(N)=O`, the TGI with LXFL 529 NSCLC, in the experiment on SNB-78 CNS, in the experiment on DLD-1 colon, with RXF-631 renal, in the experiment with XF 498 CNS and in the experiment with M19-MEL melanoma was > 100 µM throughout.

Take `O=C(CCC(=O)Nc1ccc(Cl)c(Cl)c1)Cc1nc2ccccc2o1`: the TGI with LXFL 529 NSCLC, with HOP-18 NSCLC, in the experiment with SNB-78 CNS, in the experiment on RXF-631 renal and in the experiment on M19-MEL melanoma was > 100 µM throughout.

For the compound `Cc1nc([N+](=O)[O-])cn1-c1nc2ccccn2c1[N+](=O)[O-]`, the TGI with MDA-N is > 100 µM.

Regarding `CCC[C@H]1O[C@@H]2CC(=O)O[C@@H]2C2=C1C(=O)C=CC2=O`, the TGI was determined as 29.6 µM with LXFL 529 NSCLC; 31.9 µM in the experiment with HOP-18 NSCLC; 45.7 µM in the experiment with SNB-78 CNS; 35.8 µM in the experiment with DLD-1 colon; 41.7 µM in the experiment with M19-MEL melanoma.

With `O=C(C(=O)c1cc2ccccc2[nH]1)c1cc2ccccc2[nH]1`, the TGI is > 347 µM with LXFL 529 NSCLC; > 347 µM in the experiment on SNB-78 CNS; > 347 µM in the experiment with DLD-1 colon; > 347 µM in the experiment on RXF-631 renal; 336 µM in the experiment on XF 498 CNS; > 347 µM in the experiment on M19-MEL melanoma.

Consider `CC1(C)OC2C(CCP(=O)(O)O)OC(c3nc(C(N)=O)cs3)C2O1` (configuration not stated), for which the TGI in the experiment with LXFL 529 NSCLC, with HOP-18 NSCLC, in the experiment with DLD-1 colon, with RXF-631 renal and in the experiment on M19-MEL melanoma was > 100 µM each time.

On to `NC(=O)NNC(=O)CCn1[nH]c(=O)c(Cl)c(Cl)c1=O`, for which the TGI in the experiment on LXFL 529 NSCLC, in the experiment with HOP-18 NSCLC, with SNB-78 CNS, in the experiment on DLD-1 colon, with RXF-631 renal and with M19-MEL melanoma was > 100 µM each time.

Take `CCc1nc(N)nc(N)c1-c1ccc(Cl)c([N+](=O)[O-])c1`: the TGI in the experiment on MDA-N is > 100 µM.

Regarding `Cc1c(-c2cnccn2)ssc1=S`, in the experiment with MDA-N, the TGI was > 100 µM.

With `C=CSCCC(N)C(=O)O` (configuration not stated), the TGI in the experiment on LXFL 529 NSCLC, in the experiment on HOP-18 NSCLC, in the experiment with SNB-78 CNS, in the experiment with DLD-1 colon, with RXF-631 renal and in the experiment on XF 498 CNS was > 100 µM each time. In the experiment with M19-MEL melanoma, the TGI is > 100 µM.

For `O=C(O)CCNCC(=O)O`, the TGI in the experiment on MDA-N is > 100 µM.

Regarding `CCOC(OC(C)=O)[C@@H]1C=C[C@H](C)N(c2ccc([N+](=O)[O-])cc2)O1` (some centres not stated), the TGI in the experiment with LXFL 529 NSCLC was 10.8 µM; with HOP-18 NSCLC it was 17.8 µM; in the experiment on SNB-78 CNS, 60.4 µM; in the experiment on DLD-1 colon it was 11.1 µM; in the experiment with RXF-631 renal it was 25.7 µM; with XF 498 CNS, 32.6 µM. The TGI in the experiment with M19-MEL melanoma was found to be 5.3 µM.

With `COC1CCC(OS(C)(=O)=O)C(CO)O1` (configuration not stated), the TGI in the experiment with LXFL 529 NSCLC, in the experiment on DLD-1 colon, with XF 498 CNS and in the experiment on M19-MEL melanoma was > 100 µM throughout.

`CCN(CC)CCCNc1nccc2c(C)c3c(cc12)c1cnccc1n3C`: the TGI in the experiment on SNB-78 CNS is 2.76 µM; in the experiment with DLD-1 colon, 0.266 µM; in the experiment with XF 498 CNS, 0.923 µM; in the experiment with M19-MEL melanoma, 2.67 µM.

For `COc1ccc(Cc2c3cc(O)c(=O)cc-3ccn2C)cc1`, the TGI with HOP-18 NSCLC was > 100 µM; with SNB-78 CNS, > 100 µM; in the experiment with DLD-1 colon it was > 100 µM; in the experiment with RXF-631 renal, > 100 µM; in the experiment on XF 498 CNS, > 100 µM; with M19-MEL melanoma, 75 µM.

Turning to `NNC(=O)C(=O)N/N=C(\CCCC(=O)Nc1ccc(Cl)cc1)CC(=O)c1ccc(F)cc1`, the TGI in the experiment on LXFL 529 NSCLC, in the experiment on HOP-18 NSCLC, in the experiment with SNB-78 CNS, in the experiment on DLD-1 colon, with RXF-631 renal and in the experiment with XF 498 CNS was > 100 µM each time. Also, the TGI in the experiment with M19-MEL melanoma was > 100 µM.

Regarding `C=C(CCCCC)CN1CCCC1C(C)=O` (configuration not stated), the TGI is > 100 µM in the experiment on LXFL 529 NSCLC; > 94.8 µM in the experiment on HOP-18 NSCLC; > 76.6 µM in the experiment on SNB-78 CNS; > 100 µM in the experiment on DLD-1 colon; 41.7 µM with XF 498 CNS; > 100 µM with M19-MEL melanoma.

For `CN(Cc1ccccc1)Cn1ccnc1`, the TGI with MDA-N was > 100 µM.

Consider `C=CCNC(=O)NCCCCC(NC(C)=O)C(=O)NCc1ccccc1` (configuration not stated), for which the TGI with LXFL 529 NSCLC, with HOP-18 NSCLC, in the experiment on XF 498 CNS and in the experiment on M19-MEL melanoma was > 100 µM throughout.

With `CC(C)(C)C1=CC(=C(P(=O)(O)O)P(=O)(O)O)C=C(C(C)(C)C)C1=O`, the TGI in the experiment on LXFL 529 NSCLC, in the experiment on HOP-18 NSCLC, with SNB-78 CNS, in the experiment with DLD-1 colon, in the experiment with RXF-631 renal and in the experiment with M19-MEL melanoma was > 50 µM throughout.

Regarding `COC(=O)c1cc2c(=O)n(C)c3ccccc3n2c1C(=O)OC`, the TGI with LXFL 529 NSCLC is > 100 µM; in the experiment on SNB-78 CNS, > 100 µM; in the experiment with DLD-1 colon, > 100 µM; in the experiment with RXF-631 renal, > 100 µM; in the experiment with XF 498 CNS it was 51.3 µM; in the experiment on M19-MEL melanoma it was > 100 µM.

`O=C(O)CSc1n[nH]c(=O)[nH]c1=O`: in the experiment with MDA-N, the TGI is > 100 µM.
